# Test results taken from patent US10758534B2 (Vertex Pharmaceuticals Incorporated, priority 2014, dated 2020).
# Target: T1, F508del (Homo sapiens, UniProt P13569, DEL508-508)
# T1 construct: expressed in transfected cells
# Experiment: Protocol 1: membrane potential optical assay (FLIPR III, voltage sensing dye), identification of potentiator compounds
# Format: cell-based
# Details: Table 3, compounds of Table 1
# Summary of the method: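 Mouse NIH 3T3 fibroblasts stably expressing F508del, temperature-corrected at 27 °C for 24 h, pretreated with compound, then loaded with voltage-sensing redistribution dye. Forskolin was added in a single step with a chloride gradient (chloride-free gluconate bath; Bath Solution #1 HEPES pH 7.4). Membrane-potential fluorescence read on FLIPR III.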
# T1 sequence (P13569 with tags, fused parts or gaps DEL508-508): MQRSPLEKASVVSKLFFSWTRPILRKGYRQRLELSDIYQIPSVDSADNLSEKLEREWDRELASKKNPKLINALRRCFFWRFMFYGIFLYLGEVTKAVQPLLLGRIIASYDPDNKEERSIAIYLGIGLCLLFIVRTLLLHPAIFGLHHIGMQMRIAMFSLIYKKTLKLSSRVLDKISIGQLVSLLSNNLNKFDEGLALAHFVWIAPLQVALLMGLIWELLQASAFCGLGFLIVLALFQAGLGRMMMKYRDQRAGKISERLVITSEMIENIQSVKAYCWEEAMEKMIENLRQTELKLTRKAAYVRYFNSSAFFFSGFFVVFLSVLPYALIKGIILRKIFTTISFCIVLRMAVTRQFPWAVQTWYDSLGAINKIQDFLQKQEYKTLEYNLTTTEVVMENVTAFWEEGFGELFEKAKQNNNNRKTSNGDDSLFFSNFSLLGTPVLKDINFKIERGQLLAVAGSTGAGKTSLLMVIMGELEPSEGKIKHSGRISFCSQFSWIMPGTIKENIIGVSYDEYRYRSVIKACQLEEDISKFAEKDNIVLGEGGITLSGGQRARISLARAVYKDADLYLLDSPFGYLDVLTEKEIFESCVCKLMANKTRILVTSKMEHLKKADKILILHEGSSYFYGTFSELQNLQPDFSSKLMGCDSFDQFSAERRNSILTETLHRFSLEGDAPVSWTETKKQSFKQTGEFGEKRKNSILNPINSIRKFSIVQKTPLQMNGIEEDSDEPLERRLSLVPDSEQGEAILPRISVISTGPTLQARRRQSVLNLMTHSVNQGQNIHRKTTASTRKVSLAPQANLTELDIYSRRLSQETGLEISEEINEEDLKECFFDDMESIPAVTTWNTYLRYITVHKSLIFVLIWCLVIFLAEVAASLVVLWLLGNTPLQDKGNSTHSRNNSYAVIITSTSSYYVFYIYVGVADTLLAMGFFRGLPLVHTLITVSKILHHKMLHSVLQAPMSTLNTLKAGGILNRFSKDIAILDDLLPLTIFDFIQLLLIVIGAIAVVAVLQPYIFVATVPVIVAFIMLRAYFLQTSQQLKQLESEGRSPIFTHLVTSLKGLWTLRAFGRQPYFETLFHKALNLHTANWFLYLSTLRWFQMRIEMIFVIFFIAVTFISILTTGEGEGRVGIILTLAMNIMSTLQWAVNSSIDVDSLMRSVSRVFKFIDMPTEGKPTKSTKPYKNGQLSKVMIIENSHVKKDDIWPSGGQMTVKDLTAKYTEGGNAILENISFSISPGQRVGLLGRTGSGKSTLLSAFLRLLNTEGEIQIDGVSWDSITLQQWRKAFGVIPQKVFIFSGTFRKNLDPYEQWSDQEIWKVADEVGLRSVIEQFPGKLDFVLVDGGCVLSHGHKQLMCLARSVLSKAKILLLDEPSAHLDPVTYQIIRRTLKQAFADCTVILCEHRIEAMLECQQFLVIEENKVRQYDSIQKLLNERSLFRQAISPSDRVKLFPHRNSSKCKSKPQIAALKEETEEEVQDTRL
row,SMILES,EC30
1,"CCOc1cc(C)cc(-c2ccc(C(=O)NS(=O)(=O)c3cccc(N)n3)c(N3C[C@@H](C)CC3(C)C)n2)c1 [Compound 1488, N-[(6-amino-2-pyridyl)sulfonyl]-6-(3-ethoxy-5-methyl-phenyl)-2-[(4S)-2,2,4-trimethylpyrrolidin-1-yl]pyridine-3-carboxamide]",+++ (“+++” means <3 uM)
2,"CC(C)C(C)c1ccc(C(=O)NS(=O)(=O)c2cccc(N)n2)c(N2C[C@@H](C)CC2(C)C)n1 (stereo partly drawn) [Compound 1489, N-[(6-amino-2-pyridyl)sulfonyl]-6-(1,2-dimethylpropyl)-2-[(4S)-2,2,4-trimethylpyrrolidin-1-yl]pyridine-3-carboxamide]",+++ (“+++” means <3 uM)
3,"CCOC(=O)/C=C/c1cc(C(=O)NS(=O)(=O)c2cccc(N)n2)c(N2C[C@@H](C)CC2(C)C)nc1C(C)(C)C [Compound 1490, Ethyl (E)-3-[5-[(6-amino-2-pyridyl)sulfonylcarbamoyl]-2-tert-butyl-6-[(4S)-2,2,4-trimethylpyrrolidin-1-yl]-3-pyridyl]prop-2-enoate]",+++ (“+++” means <3 uM)
4,"CC(C)Oc1ccc(-c2nc(N3C[C@H](C)CC3(C)C)ccc2C(=O)NS(=O)(=O)c2cccc(N)n2)cn1 [Compound 1491, N-[(6-amino-2-pyridyl)sulfonyl]-2-(6-isopropoxy-3-pyridyl)-6-[(4R)-2,2,4-trimethylpyrrolidin-1-yl]pyridine-3-carboxamide]",++ (“++” means between 3 uM and 10 uM)
5,"Cc1cc(C)c(Oc2nc(C3CC(=O)CC(C)(C)C3)ccc2C(=O)NS(=O)(=O)c2cccc(N)n2)c(C)c1 (stereo not shown) [Compound 1492, N-[(6-amino-2-pyridyl)sulfonyl]-6-(3,3-dimethyl-5-oxo-cyclohexyl)-2-(2,4,6-trimethylphenoxy)pyridine-3-carboxamide]",++ (“++” means between 3 uM and 10 uM)
6,"CC(C)COc1cc(F)cc(-c2ccc(C(=O)NS(=O)(=O)c3cccc(N)n3)c(C3=CCC(C)(C)CC3)n2)c1 [Compound 1493, N-[(6-amino-2-pyridyl)sulfonyl]-2-(4,4-dimethylcyclohexen-1-yl)-6-(3-fluoro-5-isobutoxy-phenyl)pyridine-3-carboxamide]",+++ (“+++” means <3 uM)
7,"Cc1cc(C)c(Oc2nc(N3[C@H](C)CC[C@@H]3C)ccc2C(=O)NS(=O)(=O)c2cccc(N)n2)c(C)c1 [Compound 1494, N-[(6-amino-2-pyridyl)sulfonyl]-6-[(2R,5S)-2,5-dimethylpyrrolidin-1-yl]-2-(2,4,6-trimethylphenoxy)pyridine-3-carboxamide]",+++ (“+++” means <3 uM)
8,"CC1CN(c2nc(C(C)(C)C)c(C3=CCOCC3)cc2C(=O)NS(=O)(=O)c2cccc(N)n2)C(C)(C)C1 (stereo not shown) [Compound 1495, N-[(6-amino-2-pyridyl)sulfonyl]-6-tert-butyl-5-(3,6-dihydro-2H-pyran-4-yl)-2-(2,2,4-trimethylpyrrolidin-1-yl)pyridine-3-carboxamide]",+++ (“+++” means <3 uM)
9,"Cc1nccc(-c2cccc(S(=O)(=O)NC(=O)c3cc(C(C)(C)C)nn3Cc3c(C)cccc3C)c2)n1 [Compound 1496, 5-tert-butyl-2-[(2,6-dimethylphenyl)methyl]-N-[3-(2-methylpyrimidin-4-yl)phenyl]sulfonyl-pyrazole-3-carboxamide]",+++ (“+++” means <3 uM)
10,"CC(C)COc1cc(F)cc(-c2ccc(C(=O)NS(=O)(=O)c3cccc(N)n3)c(N3CC(C)CC3(C)C)c2F)c1 (stereo not shown) [Compound 1497, N-[(6-amino-2-pyridyl)sulfonyl]-3-fluoro-4-(3-fluoro-5-isobutoxy-phenyl)-2-(2,2,4-trimethylpyrrolidin-1-yl)benzamide]",+++ (“+++” means <3 uM)
11,"CCOc1cccc2c1CN(Cc1c(C)cccc1C)C2(C)C(=O)NS(=O)(=O)c1cccc(N)n1 (stereo not shown) [Compound 1498, N-[(6-amino-2-pyridyl)sulfonyl]-2-[(2,6-dimethylphenyl)methyl]-4-ethoxy-1-methyl-isoindoline-1-carboxamide]",+++ (“+++” means <3 uM)
12,"CC(C)COc1cc(F)cc(-c2ccc(C(=O)NS(=O)(=O)c3cccc(N)n3)c(OCC3CCOC3)n2)c1 (stereo not shown) [Compound 1499, N-[(6-amino-2-pyridyl)sulfonyl]-6-(3-fluoro-5-isobutoxy-phenyl)-2-(tetrahydrofuran-3-ylmethoxy)pyridine-3-carboxamide]",++ (“++” means between 3 uM and 10 uM)
13,"C[C@@H]1CN(c2nc(C3CCCCO3)ccc2C(=O)NS(=O)(=O)c2cccc(N)n2)C(C)(C)C1 (stereo partly drawn) [Compound 1500, N-[(6-amino-2-pyridyl)sulfonyl]-6-tetrahydropyran-2-yl-2-[(4S)-2,2,4-trimethylpyrrolidin-1-yl]pyridine-3-carboxamide]",+++ (“+++” means <3 uM)
14,"Cc1cccc(C)c1Cn1nc(-c2coc3ccccc3c2=O)cc1C(=O)NS(=O)(=O)c1ccccc1 [Compound 1501, N-(benzenesulfonyl)-2-[(2,6-dimethylphenyl)methyl]-5-(4-oxochromen-3-yl)pyrazole-3-carboxamide]",+++ (“+++” means <3 uM)
15,"CC(C)COc1cc(F)cc(-c2ccc(C(=O)NS(=O)(=O)c3cccc(N)n3)c(C3=CC(C)(C)CC3(C)C)n2)c1 [Compound 1502, N-[(6-amino-2-pyridyl)sulfonyl]-6-(3-fluoro-5-isobutoxy-phenyl)-2-(3,3,5,5-tetramethylcyclopenten-1-yl)pyridine-3-carboxamide]",+++ (“+++” means <3 uM)
16,"C[C@@H]1CN(c2nc(C3CCCCO3)ccc2C(=O)NS(=O)(=O)c2ccc[nH]c2=O)C(C)(C)C1 (stereo partly drawn) [Compound 1503, N-[(2-oxo-1H-pyridin-3-yl)sulfonyl]-6-tetrahydropyran-2-yl-2-[(4S)-2,2,4-trimethylpyrrolidin-1-yl]pyridine-3-carboxamide]",++ (“++” means between 3 uM and 10 uM)
17,"C[C@@H]1CN(c2nc(-c3ccc(OCC(C)(C)C)nc3)ccc2C(=O)NS(=O)(=O)c2cccc(N)n2)C(C)(C)C1 [Compound 1504, N-[(6-amino-2-pyridyl)sulfonyl]-6-[6-(2,2-dimethylpropoxy)-3-pyridyl]-2-[(4S)-2,2,4-trimethylpyrrolidin-1-yl]pyridine-3-carboxamide]",+++ (“+++” means <3 uM)
18,"CC(C)c1ccc(C(=O)NS(=O)(=O)c2cccc(N)n2)c(N2C[C@@H](C)CC2(C)C)n1 [Compound 1505, N-[(6-amino-2-pyridyl)sulfonyl]-6-isopropyl-2-[(4S)-2,2,4-trimethylpyrrolidin-1-yl]pyridine-3-carboxamide]",+++ (“+++” means <3 uM)

# Next, values leading:
row,EC30,SMILES
1,+++ (“+++” means <3 uM),"CC(C)CN(C)c1ccc(-c2ccc(C(=O)NS(=O)(=O)c3cccc(N)n3)c(N3[C@H](C)CC[C@@H]3C)n2)cn1 [Compound 1506, N-[(6-amino-2-pyridyl)sulfonyl]-2-[(2S,5R)-2,5-dimethylpyrrolidin-1-yl]-6-[6-[isobutyl(methyl)amino]-3-pyridyl]pyridine-3-carboxamide]"
2,++ (“++” means between 3 uM and 10 uM),"CCc1ccc(C(=O)NS(=O)(=O)c2cccc(N)n2)c(N2C[C@@H](C)CC2(C)C)n1 [Compound 1507, N-[(6-amino-2-pyridyl)sulfonyl]-6-ethyl-2-[(4S)-2,2,4-trimethylpyrrolidin-1-yl]pyridine-3-carboxamide]"
3,+++ (“+++” means <3 uM),"CCOc1cccc2c1CN(Cc1c(C)cc(C)cc1C)C2(C)C(=O)NS(=O)(=O)c1ccccc1O (stereo not shown) [Compound 1509, 4-ethoxy-N-(2-hydroxyphenyl)sulfonyl-1-methyl-2-[(2,4,6-trimethylphenyl)methyl]isoindoline-1-carboxamide]"
4,+++ (“+++” means <3 uM),"CC(C)=C(C)c1ccc(C(=O)NS(=O)(=O)c2cccc(N)n2)c(N2C[C@@H](C)CC2(C)C)n1 [Compound 1510, N-[(6-amino-2-pyridyl)sulfonyl]-6-(1,2-dimethylprop-1-enyl)-2-[(4S)-2,2,4-trimethylpyrrolidin-1-yl]pyridine-3-carboxamide]"
5,+++ (“+++” means <3 uM),CC1CN(c2nc(C(C)(C)C)ccc2C(=O)NS(=O)(=O)c2cccc(N)n2)C(C)(C)C1 (stereo not shown) [Compound 1511]
6,+++ (“+++” means <3 uM),"CCOc1cc(C)cc(-c2ccc(C(=O)NS(=O)(=O)c3cccc(N)n3)c(N3C[C@@H](C)CC3(C)C)n2)n1 [Compound 1512, N-[(6-amino-2-pyridyl)sulfonyl]-6-(6-ethoxy-4-methyl-2-pyridyl)-2-[(4S)-2,2,4-trimethylpyrrolidin-1-yl]pyridine-3-carboxamide]"
7,+++ (“+++” means <3 uM),"Cc1cc(C)c(Oc2nc(C3=CCCCCC3)ccc2C(=O)NS(=O)(=O)c2cccc(N)n2)c(C)c1 [Compound 1513, N-[(6-amino-2-pyridyl)sulfonyl]-6-(cyclohepten-1-yl)-2-(2,4,6-trimethylphenoxy)pyridine-3-carboxamide]"
8,+++ (“+++” means <3 uM),"Cc1cc(OC(C)C)ncc1-c1ccc(C(=O)NS(=O)(=O)c2cccc(N)n2)c(N2[C@H](C)CC[C@@H]2C)n1 [Compound 1514, N-[(6-amino-2-pyridyl)sulfonyl]-2-[(2R,5S)-2,5-dimethylpyrrolidin-1-yl]-6-(6-isopropoxy-4-methyl-3-pyridyl)pyridine-3-carboxamide]"
9,+++ (“+++” means <3 uM),"CC(CO)COc1cc(F)cc(-c2ccc(C(=O)NS(=O)(=O)c3ccccc3)c(N3C[C@@H](C)CC3(C)C)n2)c1 (stereo partly drawn) [Compound 1515, N-(benzenesulfonyl)-6-[3-fluoro-5-(3-hydroxy-2-methyl-propoxy)phenyl]-2-[(4S)-2,2,4-trimethylpyrrolidin-1-yl]pyridine-3-carboxamide]"
10,+++ (“+++” means <3 uM),"Cc1cc(C)c(Oc2nc(N3CCCC3C)c(C)cc2C(=O)NS(=O)(=O)c2cccc(N)n2)c(C)c1 (stereo not shown) [Compound 1516, N-[(6-amino-2-pyridyl)sulfonyl]-5-methyl-6-(2-methylpyrrolidin-1-yl)-2-(2,4,6-trimethylphenoxy)pyridine-3-carboxamide]"
